{
  "source": "patent US20110195910A1",
  "about": "“USE OF TOCOTRIENOL COMPOSITION FOR THE PREVENTION OF CANCER” (DAVOS LIFE SCIENCE PTE. LTD., priority 2008, published 2011)",
  "key": {"MDA-MB-231 cells": {"test_system": "MDA-MB-231 cells", "assay": "Flow cytometry, western blotting and RT-PCR, MDA-MB-231 cells", "format": "cell-based, human", "protocol": "1.1.3 Flow cytometry—Cell cycle distribution was examined using flow cytometry. Briefly, cells were harvested by trypsinization, fixed in 70% ethanol at 4° C. overnight, and then resuspended in PBS. After incubation at 4° C. for overnight, 2×10^6 cells were incubated with in 20 μg/ml propidium iodide (PI) and 2 mg RNaseA for 15 minutes at 37° C. Cells were then examined by BD SLRII cytometer and the results were analyzed using ModFit software (Becton Dickinson, Mountain View, Calif.). Data were expressed as the percentage of cell cycle distribution in the entire population.\n1.1.5 Western blotting—Detailed protocols have been described previously and are known in the art. Briefly, cell lysates were prepared by suspending cell pellets in lysis buffer [50 mmol/l Tris-HCl (pH 8.0), 150 mmol/l NaCl, 1% NP40, 0.5% deoxycholate, 0.1% SDS, 1 mg/ml aprotinin, 1 μg/ml leupeptin and 1 mmol/l phenylmethylsulfonyl fluoride]. For nuclear protein extraction, NucBuster™ protein extraction kit was used. Protein concentration was measured using the DC Protein Assay kit (Bio-Rad, Hercules, Calif.). Equal amount of protein (30 μg) was loaded onto a 10% SDS polyacrylamide gel for electrophoresis and then transferred onto a polyvinylidene difluoride membrane (Amersham, Piscataway, N.J.). The membrane was then incubated with primary antibodies for 1 hr at room temperature against E-cadherin (BD Biosciences, Bedford, Mass.), α-catenin, β-catenin, γ-catenin, Id-1, Id-3, EGFR, phosphor-c-jun, phosphor-ATF2, cleaved PARP, vimentin, α-smooth muscle actin, twist (Santa Cruz Biotechnology, Calif.), phosphor-IkB-alpha (Ser32/36), phosphor-IKK alpha (Seri 80)/IKK beta (Ser181), phosphor-SAPK/JNK (Thr183/Tyr185) G9, SAPK/JNK, NF-kB p65 (5A5) (Cell Signaling Technology Inc, Beverly, Mass.), Snail (Abcam). After incubation with appropriate secondary antibodies, signals were visualized by ECL western blotting system (Amersham, Piscataway, N.J.). Expression of β-actin and histone H1 were assessed as an internal loading control for total cell lysate and nuclear protein lysate respectively.\n3.1.5 DNA fragmentation assay—After 24 hrs incubation with gamma-T3, 3×10^6 MDA-MB-231 cells were harvested and suspended in lysis buffer [5 mM Tris-HCl (pH 8.0), 20 mM EDTA, and 0.5% (v/v) Triton X-100] for 60 min on ice. Samples were centrifuged, the supernatants were removed and incubated with 5 μl RNase A (10 μg/ml) at 37° C. for 40 min, and 1 ml of anhydrous ethanol was added. Tubes were placed at […] for 20 min and then centrifuged to pellet the DNA. DNA samples were analyzed by electrophoresis at 80 V for 3 hrs on a 2% agarose gel containing ethidium bromide (0.2 μg/ml) and visualized under UV illumination.\n3.1.6 Terminal deoxynucleotidyltransferase-mediated deoxyuridine triphosphate nick end-labelling (TUNEL) assay—DNA strand breaks during apoptosis was examined using in situ cell death detection reagent (Roche Applied Science). Briefly, 1×10^6 cells were pretreated with gamma-T3 for 24 hrs. Thereafter, cells were incubated with reaction mixture for 60 min at 37° C. Stained cells were analyzed and captured by fluorescence microscope on glass slide.\n3.1.7 Flow cytometry was carried out as described above under item 1.1.3. Matrigel-invasion assay was carried out as described above under item 1.1.4. Western blotting was carried out as described above under item 1.1.5.\n3.1.8 Id-1 RT-PCR—Total RNA was isolated using Trizol® reagent according to the manufacturer's protocol (Invitrogen). cDNA was synthesized using the SuperScript™ First Strand Synthesis System (Invitrogen) and was then amplified by PCR with Id-1 specific primers (forward primer, Id1-S, 5′-CTCCAGCACGTCATCGACTA-3′ and reverse primer, Id1-AS,5′-AAC GCA TGC CGC CTC-3′). PCR cycling protocol was as follows: 30 cycles of 10 min at 95° C., 30 s at 95° C., 30 s at 55° C., 1 min at 72° C. and 10 min at 72° C. Glyceraldehyde 3-phosphate dehydrogenase was amplified as an internal control. […]"}, "PC-3 cells": {"test_system": "PC-3 cells", "assay": "Matrigel-invasion assay, PC-3 cells", "format": "cell-based, human", "conditions": "γ-T3 at IC50, 24 hrs", "protocol": "1.1.4 Matrigel-invasion assay—Matrigel-invasion assay was performed according to a previously published method with modifications. Briefly, cells were pre-incubated in a serum-free RPMI 1640 medium with or without γ-T3 isomers for 24 hrs. Cells (2.5×10^5) resuspended in 500 μl of serum-free RPMI 1640 containing 0.1% bovine serum albumin (BSA) were then added to the upper chamber of a 8 μm pore size insert (Millipore, Bedford, Mass.) manually coated with Matrigel (0.5 mg/ml) (BD Bioscience, Bedford, Mass.). Five hundred μl of invasion buffer containing fibronectin (10 μg/ml) and RPMI 1640 supplemented with 10% FCS were added in the lower chamber as a chemo-attractant. Cells were incubated at 37° C. for 24 hrs in 5% CO2 humidified conditions. At the end of incubation period, inserts were stained with Diff-Quick staining solution (Fischer Scientific). Non-invaded cells on the inside of the insert were scraped off with a cotton swab. Cell invasions were then examined by a phase-contrast microscope. The invaded cells were extracted using extraction buffer (Millipore, Bedford, Mass.) and the cell number was estimated based on absorbance at 595 nm.\n2.1.4 Flow cytometry was carried out as described above under item 1.1.3. Matrigel-invasion assay was carried out as described above under item 1.1.4. Western blotting was carried out as described above under item 1.1.5."}, "PC-3-luc cells": {"test_system": "PC-3-luc cells", "assay": "Orthotopic PC-3 xenograft model (tumorigenicity of pre-treated cells)", "format": "in vivo, CB-17 SCID mice", "conditions": "cells pre-treated with 5 μg/ml for 24 hrs; two weeks after implantation", "protocol": "5.1.9 Orthotopic PC-3 xenograft model—The orthotopic model was established with procedures known in the art. Briefly, 8-week-old CB-17 SCID mice were anesthetized and placed under a dissecting microscope (Olympus, Tokyo, Japan). An incision at the midline of abdomen was made and the dorsal prostate was exposed at the base of the bladder. Equal amount of viable PC3-luc cells (2.6×10^4 cells resuspended in 5 μl of serum free RPMI) with or without prior γ-T3 treatment for 24 hrs were injected into the dorsal prostates of the mice. Organs were replaced and the abdomen was closed. To detect the bioluminescent signal of the cells, mice were anesthetized and then injected with 80 mg/kg of D-luciferin solution by i.p. (Xenogen Corporation, Cranbury, N.J.). Signal was captured by Xenogen IVIS 100 series imaging system. Tumors progression was monitored by measuring the bioluminescent signal (units of photons per second per unit area) every 2 weeks until 6-week post tumor implantation. Mice were sacrificed by cervical dislocation and tumors were collected and fixed in 10% formalin. All surgical and animal handling procedures were carried out according to the guidelines of the Committee on the Use of Live Animals in Teaching and Research (CULATR), The University of Hong Kong."}},
  "data": [
    {"smiles": "CC(C)=CCC/C(C)=C/CC/C(C)=C/CCC1(C)CCc2cc(O)c(C)c(C)c2O1", "note": "(stereo not shown) [γ-T3, 7,8-dimethyltocotrienol]", "values": [
      {"measurement": "JNK phosphorylation", "setting": "MDA-MB-231 cells; MDA-MB-231", "result": "dose-dependent increase in JNK phosphorylation activities"},
      {"measurement": "Src phosphorylation, protein level of Smad1/5/8, LOX and activated Fak", "setting": "MDA-MB-231 cells; MDA-MB-231", "result": "repressed in a dose dependent manner"},
      {"measurement": "expression of Snail and Twist", "setting": "MDA-MB-231 cells; MDA-MB-231", "result": "downregulated"},
      {"measurement": "nuclear level of NF-κB p65", "setting": "MDA-MB-231 cells; MDA-MB-231", "result": "suppressed nuclear level of NF-κB p65 in a dose-dependent manner"},
      {"measurement": "MAPK/ERK pathway (phosphorylation of Erk1/2, Mek1/2 and Elk1)", "setting": "MDA-MB-231 cells; MDA-MB-231, 24 hours", "result": "activated"},
      {"measurement": "activation of pro-apoptotic proteins (cleaved products)", "setting": "MDA-MB-231 cells; MDA-MB-231, 24 hrs", "result": "activation of procaspase 3, 7, 8, 9 as well as PARP"},
      {"measurement": "Id1 and Id3 expressions (EGF-R similar)", "setting": "MDA-MB-231 cells; MDA-MB-231, increasing dosages", "result": "significantly suppressed to almost undetectable level"},
      {"measurement": "sub-G1 cell population (flow cytometry)", "setting": "MDA-MB-231 cells; gamma-T3 IC50-90, 24 hrs", "result": "induction of sub-G1 cell population"},
      {"measurement": "invasion capability compared to untreated control", "setting": "PC-3 cells", "result": "at least 2.5 -time lower"},
      {"measurement": "mice that failed to develop visible tumor", "setting": "PC-3-luc cells", "result": "5 out of 7"}
    ]}
  ]
}
